Read-outs that look alike come from different tables or passages of the source. Where a SMILES comes first, the peptide text is derived from it. Bridges are numbered along the chain shown (N, C = ends). [ ]: non-standard residue; d: D form. The star is where a group is joined. d(aIle) = CC[C@H](C)[C@@H](N)C(=O)O; d(aThr) = C[C@@H](O)[C@@H](N)C(=O)O; Hexanoyl(5-Me) = CC(C)CCCC(=O)*; Orn = NCCC[C@H](N)C(=O)O; Dhb = C/C=C(\N)C(=O)O
What was measured:
Format in all cases: cell-based, human
[1] = test system: A-549; assay: SRB colorimetric assay of cell growth and viability, A-549; conditions: 48 hours exposure; for GI50: read-out: GI50 A-549; for CC50: read-out: LC50 A-549
[2] = test system: SK-MEL-28; assay: SRB colorimetric assay of cell growth and viability, SK-MEL-28; conditions: 48 hours exposure; for CC50: read-out: LC50 MEL-28
[3] = test system: HT-29; assay: SRB colorimetric assay of cell growth and viability, HT-29; conditions: 48 hours exposure; for GI50: read-out: GI50 HT-29; for CC50: read-out: LC50 HT-29
[4] = test system: LoVo; assay: SRB colorimetric assay of cell growth and viability, LoVo; conditions: 48 hours exposure; for CC50: read-out: LC50 LOVO
[5] = test system: LoVo-Dox; assay: SRB colorimetric assay of cell growth and viability, LoVo-Dox; conditions: 48 hours exposure; for CC50: read-out: LC50 LOVO-DOX
Procedure, shortened: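 First, 5×10^3 cells per well attach for 18 hours in RPMI 1640 with 10% FBS at 37° C and 5% CO2. Next, samples spanning 10 to 10^−8 μg/mL are added for 48 hours. Finally, cells are fixed with TCA, stained with SRB for 10 minutes and read at 490 nm.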

[6] = test system: DU-145; assay: SRB colorimetric assay of cell growth and viability, DU-145; conditions: 48 hours exposure
[7] = test system: IGROV-1; assay: SRB colorimetric assay of cell growth and viability, IGROV-1; conditions: 48 hours exposure
[8] = test system: IGROV-ET; assay: SRB colorimetric assay of cell growth and viability, IGROV-ET; conditions: 48 hours exposure; for CC50: read-out: LC50 IGROV-ET
[9] = test system: HeLa; assay: SRB colorimetric assay of cell growth and viability, HeLa; conditions: 48 hours exposure; for CC50: read-out: LC50 HELA
[10] = test system: HeLa-APL; assay: SRB colorimetric assay of cell growth and viability, HeLa-APL; conditions: 48 hours exposure; for CC50: read-out: LC50 HELA-APL
[11] = test system: K-562; assay: SRB colorimetric assay of cell growth and viability, K-562; conditions: 48 hours exposure; for CC50: read-out: LC50 K-562
[12] = test system: PANC-1; assay: SRB colorimetric assay of cell growth and viability, PANC-1; conditions: 48 hours exposure; for CC50: read-out: LC50 PANC-1

With `C/C=C1\NC(=O)[C@H](Cc2ccccc2)NC(=O)[C@@H](C(C)C)NC(=O)[C@@H]([C@@H](C)CC)NC(=O)[C@H](NC(=O)[C@H](NC(=O)[C@H](CCCN)NC(=O)[C@H]2CCCN2C(=O)[C@H](NC(=O)[C@@H](NC(=O)[C@H](CCC(=O)O)NC(=O)CCCC(C)C)C(C)C)C(C)C)[C@@H](C)CC)[C@@H](C)OC(=O)[C@H](C(C)C)NC1=O` [Compound 56, [Glu^12, noD-Val^13]-KF] ({Hexanoyl(5-Me)}-EV[dV][dP][Orn][d(aIle)][d(aThr)][d(aIle)][dV]F[Dhb]V; ester 7-C) the “TGI A-549” value [1] was 7.11E−06 Molar, the GI50 [1] was 0.168 µM and the CC50 [1] was no less than 7.11 µM. For the same compound, the GI50 [2] was no less than 7.11 µM, the “TGI MEL-28” value [2] was 7.11E−06 Molar and the CC50 [2] was no less than 7.11 µM. For the same compound, the “TGI HT-29” value [3] was 7.11E−06 Molar, the GI50 [3] was no less than 7.11 µM and the CC50 [3] was no less than 7.11 µM. For the same compound, the GI50 [4] was 2.22 µM, the “TGI LOVO” value [4] was 7.11E−06 Molar and the CC50 [4] was no less than 7.11 µM. For the same compound, the GI50 [5] was no less than 7.11 µM, the “TGI LOVO-DOX” value [5] was 7.11E−06 Molar and the CC50 [5] was no less than 7.11 µM. The GI50 [6] was 1.95 µM, the LC50 (concentration causing 50% net cell kill) [6] was no less than 7.11 µM and the “TGI DU-145” value [6] was 7.11E−06 Molar. For the same compound, the GI50 [7] was 2.78 µM, the LC50 (concentration causing 50% net cell killing) [7] was no less than 7.11 µM and the “TGI IGROV” value [7] was 7.11E−06 Molar. The GI50 [8] was 1.39 µM, the “TGI IGROV-ET” value [8] was 7.11E−06 Molar and the CC50 [8] was no less than 7.11 µM. The GI50 [9] was 0.37 µM, the “TGI HELA” value [9] was 7.11E−06 Molar and the CC50 [9] was no less than 7.11 µM. The GI50 [10] was no less than 7.11 µM, the “TGI HELA-APL” value [10] was 7.11E−06 Molar and the CC50 [10] was no less than 7.11 µM. For the same compound, the GI50 [11] was no less than 7.11 µM, the “TGI K-562” value [11] was 7.11E−06 Molar and the CC50 [11] was no less than 7.11 µM. For the same compound, the GI50 [12] was 0.118 µM, the “TGI PANC-1” value [12] was 7.11E−06 Molar and the CC50 [12] was no less than 7.11 µM.
`C/C=C1\NC(=O)[C@H](Cc2ccccc2)NC(=O)[C@@H](C(C)C)NC(=O)[C@@H]([C@@H](C)CC)NC(=O)[C@H](NC(=O)[C@H](NC(=O)[C@H](CCCN)NC(=O)[C@H]2CCCN2C(=O)[C@H](NC(=O)[C@@H](NC(=O)[C@H](CCCN)NC(=O)CCCC(C)C)C(C)C)C(C)C)[C@@H](C)CC)[C@@H](C)OC(=O)[C@H](C(C)C)NC1=O` [Compound 57, [Orn^12, noD-Val^13]-KF] ({Hexanoyl(5-Me)}-[Orn]V[dV][dP][Orn][d(aIle)][d(aThr)][d(aIle)][dV]F[Dhb]V; ester 7-C) was tested, and the “TGI A-549” value ([1]; SRB) was 7.18E−06 Molar, the GI50 ([1]; SRB) was no less than 7.18 µM and the CC50 ([1]; SRB) was no less than 7.18 µM. For the same compound, the GI50 [2] was no less than 7.18 µM, the “TGI MEL-28” value [2] was 7.18E−06 Molar and the CC50 [2] was no less than 7.18 µM. For the same compound, the “TGI HT-29” value ([3]; SRB) was 7.18E−06 Molar, the GI50 ([3]; SRB) was no less than 7.18 µM and the CC50 ([3]; SRB) was no less than 7.18 µM. The GI50 ([4]; SRB) was no less than 7.18 µM, the “TGI LOVO” value ([4]; SRB) was 7.18E−06 Molar and the CC50 ([4]; SRB) was no less than 7.18 µM. The GI50 ([5]; SRB) was no less than 7.18 µM, the “TGI LOVO-DOX” value ([5]; SRB) was 7.18E−06 Molar and the CC50 ([5]; SRB) was no less than 7.18 µM. For the same compound, the GI50 [6] was no less than 7.18 µM, the LC50 (concentration causing 50% net cell kill) [6] was no less than 7.18 µM and the “TGI DU-145” value [6] was 7.18E−06 Molar. The GI50 [7] was no less than 7.18 µM, the LC50 (concentration causing 50% net cell killing) [7] was no less than 7.18 µM and the “TGI IGROV” value [7] was 7.18E−06 Molar. For the same compound, the GI50 [8] was no less than 7.18 µM, the “TGI IGROV-ET” value [8] was 7.18E−06 Molar and the CC50 [8] was no less than 7.18 µM. The GI50 ([9]; SRB) was no less than 7.18 µM, the “TGI HELA” value ([9]; SRB) was 7.18E−06 Molar and the CC50 ([9]; SRB) was no less than 7.18 µM. The GI50 ([10]; SRB) was no less than 7.18 µM, the “TGI HELA-APL” value ([10]; SRB) was 7.18E−06 Molar and the CC50 ([10]; SRB) was no less than 7.18 µM. The GI50 ([11]; SRB) was no less than 7.18 µM, the “TGI K-562” value ([11]; SRB) was 7.18E−06 Molar and the CC50 ([11]; SRB) was no less than 7.18 µM. The GI50 ([12]; SRB) was 3.88 µM, the “TGI PANC-1” value ([12]; SRB) was 7.18E−06 Molar and the CC50 ([12]; SRB) was no less than 7.18 µM.

Source: patent publication US20070117743A1, “New antitumoral compounds” (priority 2003, published 2007)
